Laboratory results published in PubChem BioAssay (NCI).
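Here, GI50 denotes the concentration required for 50% inhibition of growth. TGI: total growth inhibition.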

Key:
Test in all cases: NCI-60 cell line screen, 384-well format
[1] = system: OVCAR-3 ovarian
[2] = system: EKVX NSCLC
[3] = system: U251 glioblastoma
[4] = system: MOLT-4 leukemia
[5] = system: SF-295 CNS
[6] = system: SK-MEL-2 melanoma
[7] = system: HS 578T breast
[8] = system: OVCAR-4 ovarian
[9] = system: HCC-2998 colon
[10] = system: NCI-H460 NSCLC
[11] = system: SF-268 CNS
[12] = system: NCI-H23 lung
[13] = system: PC-3 prostate
[14] = system: RPMI-8226 leukemia
[15] = system: NCI-H226 lung
[16] = system: SK-MEL-28 melanoma
[17] = system: SW-620 colon
[18] = system: ACHN renal
[19] = system: NCI-H322M lung
[20] = system: UACC-257 melanoma
[21] = system: BT-549 breast
[22] = system: HL-60(TB) leukemia
[23] = system: NCI-H522 lung
[24] = system: HOP-92 NSCLC
[25] = system: K-562 leukemia
[26] = system: CCRF-CEM leukemia
[27] = system: OVCAR-8 ovarian
[28] = system: SNB-75 CNS

SMILES: C=C(c1ccc(N(C)C)cc1)c1ccc(N(C)C)cc1
- TGI [1]: 3.1 µM
- GI50 [2]: 3.38 µM
- TGI [2]: 15.3 µM
- GI50 [3]: 3.48 µM
- TGI [3]: 14.4 µM
- GI50 [4]: 0.301 µM
- TGI [4]: 1.22 µM
- GI50 [5]: 2.17 µM
- TGI [5]: 5.44 µM
- GI50 [6]: 0.48 µM
- TGI [6]: 1.9 µM
- GI50 [7]: 1.69 µM
- TGI [7]: 3.53 µM
- GI50 [8]: 2.09 µM
- TGI [8]: 9.56 µM
- GI50 [9]: 1.12 µM
- TGI [9]: 4.84 µM
- GI50 [10]: 2.28 µM
- TGI [10]: 5.15 µM
- GI50 [11]: 3.27 µM
- TGI [11]: 15 µM
- GI50 [12]: 1.75 µM
- TGI [12]: 4.13 µM
- GI50 [13]: 3.1 µM
- TGI [13]: 16.1 µM
- GI50 [14]: 1.51 µM
- TGI [14]: 2.89 µM
- GI50 [15]: 4.29 µM
- TGI [15]: 26.7 µM
- GI50 [16]: 2.59 µM
- TGI [16]: 7.79 µM
- GI50 [17]: 1.15 µM
- TGI [17]: 4.26 µM
- GI50 [18]: 4.16 µM
- TGI [18]: > 100 µM
- GI50 [19]: 5.48 µM
- TGI [19]: 29.1 µM
- GI50 [20]: 3.31 µM
- TGI [20]: 19.7 µM
- GI50 [21]: 1.49 µM
- TGI [21]: 4.15 µM
- GI50 [22]: 0.382 µM
- TGI [22]: 1.87 µM
- GI50 [23]: 0.628 µM
- TGI [23]: 2.17 µM
- GI50 [24]: 2.45 µM
- TGI [24]: 8.34 µM
- GI50 [25]: 1.91 µM
- TGI [25]: 5.35 µM
- GI50 [26]: 1.35 µM
- TGI [26]: 2.68 µM
- GI50 [27]: 2.39 µM
- TGI [27]: 5.17 µM
- GI50 [28]: 1.25 µM
- TGI [28]: 5.15 µM
